In the NIST ThermoML archive (doi:10.1016/j.jct.2018.11.004):
Values joined by “and” are separate entries in the source; they are usually repeats but may differ in a detail not shown here. Identical values can stand only once. ± gives the expanded uncertainty stated by the source.

Key:
[1] = for Triple point temperature: DSC
[2] = molar heat capacity at constant pressure; conditions: 100 kPa, Extra sensitive DSC
[3] = Molar enthalpy of transition or fusion; conditions: DSC

## CC(C)[C@@H]1CC[C@@H](C)C[C@H]1O (racemic) [DL-menthol]
[1]; 273.65 K, Crystal 1
  vapor or sublimation pressure: 0.000259 ± 0.00011 kPa
[1]; 273.66 K, Crystal 1
  vapor or sublimation pressure: 0.000261 ± 0.00011 kPa
[1]; 277.57 K, Crystal 1
  vapor or sublimation pressure: 0.000442 ± 0.00011 kPa
[1]; 277.59 K, Crystal 1
  vapor or sublimation pressure: 0.000442 ± 0.00011 kPa
[1]; 277.6 K, Crystal 1
  vapor or sublimation pressure: 0.00044 ± 0.00011 kPa
[1]; 278.16 K, Crystal 1
  vapor or sublimation pressure: 0.00048 ± 0.00011 kPa and 0.000479 ± 0.00011 kPa and 0.000477 ± 0.00011 kPa
[1]; 278.28 K, Metastable crystal
  vapor or sublimation pressure: 0.000597 ± 0.00021 kPa and 0.000607 ± 0.00021 kPa
[1]; 278.29 K, Metastable crystal
  vapor or sublimation pressure: 0.00061 ± 0.00021 kPa
[1]; 282.56 K, Crystal 1
  vapor or sublimation pressure: 0.000853 ± 0.00011 kPa
[1]; 282.57 K, Crystal 1
  vapor or sublimation pressure: 0.000852 ± 0.00011 kPa
[1]; 282.59 K, Crystal 1
  vapor or sublimation pressure: 0.000854 ± 0.00011 kPa
[1]; 283.12 K, Metastable crystal
  vapor or sublimation pressure: 0.00109 ± 0.00021 kPa
[1]; 283.13 K, Metastable crystal
  vapor or sublimation pressure: 0.0011 ± 0.00021 kPa and 0.001093 ± 0.00021 kPa
[1]; 283.15 K, Crystal 1
  vapor or sublimation pressure: 0.000922 ± 0.00011 kPa
[1]; 283.16 K, Crystal 1
  vapor or sublimation pressure: 0.000921 ± 0.00011 kPa and 0.000926 ± 0.00011 kPa
[1]; 287.34 K, Crystal 1
  vapor or sublimation pressure: 0.001562 ± 0.00011 kPa
[1]; 287.43 K, Crystal 1
  vapor or sublimation pressure: 0.001579 ± 0.00011 kPa
[1]; 287.59 K, Crystal 1
  vapor or sublimation pressure: 0.001607 ± 0.00011 kPa
[1]; 288.14 K, Metastable crystal
  vapor or sublimation pressure: 0.002021 ± 0.00021 kPa and 0.00201 ± 0.00021 kPa
[1]; 288.15 K, Metastable crystal
  vapor or sublimation pressure: 0.00201 ± 0.00021 kPa
[1]; 288.16 K, Crystal 1
  vapor or sublimation pressure: 0.001734 ± 0.00011 kPa and 0.001736 ± 0.00011 kPa
[1]; 292.79 K, Crystal 1
  vapor or sublimation pressure: 0.003041 ± 0.00012 kPa
[1]; 292.84 K, Crystal 1
  vapor or sublimation pressure: 0.003054 ± 0.00012 kPa
[1]; 292.9 K, Crystal 1
  vapor or sublimation pressure: 0.003078 ± 0.00012 kPa
[1]; 293.14 K, Crystal 1
  vapor or sublimation pressure: 0.003173 ± 0.00012 kPa and 0.00318 ± 0.00012 kPa
[1]; 293.14 K, Metastable crystal
  vapor or sublimation pressure: 0.003615 ± 0.00021 kPa and 0.003596 ± 0.00021 kPa and 0.003627 ± 0.00021 kPa
[1]; 293.14 K, Metastable liquid
  vapor or sublimation pressure: 0.003971 ± 0.00012 kPa and 0.003966 ± 0.00012 kPa and 0.003969 ± 0.00012 kPa
[1]; 293.15 K, Crystal 1
  vapor or sublimation pressure: 0.003183 ± 0.00012 kPa
[1]; 293.54 K, Metastable liquid
  vapor or sublimation pressure: 0.00414 ± 0.00012 kPa and 0.004147 ± 0.00012 kPa
[1]; 293.55 K, Metastable liquid
  vapor or sublimation pressure: 0.004144 ± 0.00012 kPa
[1]; 298.13 K, Metastable liquid
  vapor or sublimation pressure: 0.006551 ± 0.00013 kPa
[1]; 298.14 K, Metastable crystal
  vapor or sublimation pressure: 0.00634 ± 0.00022 kPa and 0.006361 ± 0.00022 kPa and 0.006351 ± 0.00022 kPa
[1]; 298.14 K, Metastable liquid
  vapor or sublimation pressure: 0.006556 ± 0.00013 kPa and 0.00655 ± 0.00013 kPa
[1]; 298.16 K, Crystal 1
  vapor or sublimation pressure: 0.005733 ± 0.00013 kPa [middle of 4 runs]
[1]; 298.17 K, Crystal 1
  vapor or sublimation pressure: 0.005739 ± 0.00014 kPa
[1]; 298.18 K, Crystal 1
  vapor or sublimation pressure: 0.005738 ± 0.00014 kPa
[1]; 298.45 K, Metastable liquid
  vapor or sublimation pressure: 0.006763 ± 0.00016 kPa
[1]; 298.46 K, Metastable liquid
  vapor or sublimation pressure: 0.00678 ± 0.00016 kPa
[1]; 298.47 K, Metastable liquid
  vapor or sublimation pressure: 0.006777 ± 0.00016 kPa
[1]; 303.13 K, Metastable liquid
  vapor or sublimation pressure: 0.01059 ± 0.00016 kPa
[1]; 303.14 K, Crystal 1
  vapor or sublimation pressure: 0.01009 ± 0.00015 kPa and 0.0101 ± 0.00015 kPa
[1]; 303.14 K, Metastable liquid
  vapor or sublimation pressure: 0.0106 ± 0.00016 kPa
[1]; 303.15 K, Crystal 1
  vapor or sublimation pressure: 0.0101 ± 0.00015 kPa
[1]; 303.17 K, Crystal 1
  vapor or sublimation pressure: 0.01013 ± 0.00023 kPa
[1]; 303.19 K, Crystal 1
  vapor or sublimation pressure: 0.01017 ± 0.00023 kPa
[1]; 303.2 K, Crystal 1
  vapor or sublimation pressure: 0.01019 ± 0.00023 kPa
[1]; 303.42 K, Metastable liquid
  vapor or sublimation pressure: 0.01089 ± 0.00025 kPa and 0.01091 ± 0.00025 kPa
[1]; 303.43 K, Metastable liquid
  vapor or sublimation pressure: 0.01091 ± 0.00025 kPa
[1]; 308.14 K, Liquid
  vapor or sublimation pressure: 0.01683 ± 0.00023 kPa and 0.01682 ± 0.00023 kPa and 0.01681 ± 0.00023 kPa
[1]; 308.42 K, Liquid
  vapor or sublimation pressure: 0.01728 ± 0.00038 kPa
[1]; 308.43 K, Liquid
  vapor or sublimation pressure: 0.01728 ± 0.00038 kPa and 0.01729 ± 0.00038 kPa
[1]; 313.42 K, Liquid
  vapor or sublimation pressure: 0.0268 ± 0.00058 kPa
[1]; 313.43 K, Liquid
  vapor or sublimation pressure: 0.02682 ± 0.00058 kPa
[1]; 313.44 K, Liquid
  vapor or sublimation pressure: 0.02686 ± 0.00058 kPa
[1]; 318.39 K, Liquid
  vapor or sublimation pressure: 0.04089 ± 0.00088 kPa
[1]; 318.4 K, Liquid
  vapor or sublimation pressure: 0.04092 ± 0.00088 kPa
[1]; 318.42 K, Liquid
  vapor or sublimation pressure: 0.041 ± 0.00089 kPa
[1]; 323.41 K, Liquid
  vapor or sublimation pressure: 0.06149 ± 0.0013 kPa and 0.06146 ± 0.0013 kPa
[1]; 328.43 K, Liquid
  vapor or sublimation pressure: 0.09086 ± 0.0019 kPa
[1]; 333.43 K, Liquid
  vapor or sublimation pressure: 0.1322 ± 0.0028 kPa
[1]; 333.44 K, Liquid
  vapor or sublimation pressure: 0.1323 ± 0.0028 kPa
[1]; 338.35 K, Liquid
  vapor or sublimation pressure: 0.188 ± 0.004 kPa
[1]; 338.36 K, Liquid
  vapor or sublimation pressure: 0.188 ± 0.004 kPa
[1]; 343.2 K, Liquid
  vapor or sublimation pressure: 0.2626 ± 0.0056 kPa
[1]; 343.21 K, Liquid
  vapor or sublimation pressure: 0.2628 ± 0.0056 kPa
[1]; 348.1 K, Liquid
  vapor or sublimation pressure: 0.3638 ± 0.0077 kPa
[1]; 348.11 K, Liquid
  vapor or sublimation pressure: 0.3638 ± 0.0077 kPa
[1]; 353.03 K, Liquid
  vapor or sublimation pressure: 0.4979 ± 0.011 kPa
[1]; 362.97 K, Liquid
  vapor or sublimation pressure: 0.9031 ± 0.019 kPa
[1]; Crystal 1
  Triple point temperature: 305.7 ± 0.8 K
[1]; Metastable crystal
  Triple point temperature: 300.7 ± 0.8 K
[2]; 265 K, Crystal 1
  molar heat capacity at constant pressure: 217.6 ± 8.4 J/K/mol
[2]; 270 K, Crystal 1
  molar heat capacity at constant pressure: 221.3 ± 8.6 J/K/mol
[2]; 270 K, Metastable crystal
  molar heat capacity at constant pressure: 217.5 ± 8.4 J/K/mol
[2]; 275 K, Crystal 1
  molar heat capacity at constant pressure: 225.3 ± 8.7 J/K/mol
[2]; 275 K, Metastable crystal
  molar heat capacity at constant pressure: 219.5 ± 8.5 J/K/mol
[2]; 280 K, Crystal 1
  molar heat capacity at constant pressure: 229.5 ± 8.9 J/K/mol
[2]; 280 K, Metastable crystal
  molar heat capacity at constant pressure: 223.1 ± 8.6 J/K/mol
[2]; 285 K, Crystal 1
  molar heat capacity at constant pressure: 234.2 ± 9.1 J/K/mol
[2]; 285 K, Metastable crystal
  molar heat capacity at constant pressure: 229 ± 8.9 J/K/mol
[2]; 315.4 K, Liquid
  molar heat capacity at constant pressure: 377.3 ± 15 J/K/mol
[2]; 320 K, Liquid
  molar heat capacity at constant pressure: 384.2 ± 15 J/K/mol
[2]; 325 K, Liquid
  molar heat capacity at constant pressure: 392 ± 15 J/K/mol
[2]; 330 K, Liquid
  molar heat capacity at constant pressure: 399.8 ± 16 J/K/mol
[2]; 335 K, Liquid
  molar heat capacity at constant pressure: 406.9 ± 16 J/K/mol
[2]; 340 K, Liquid
  molar heat capacity at constant pressure: 412.7 ± 16 J/K/mol
[2]; 345 K, Liquid
  molar heat capacity at constant pressure: 418.1 ± 16 J/K/mol
[2]; 350 K, Liquid
  molar heat capacity at constant pressure: 423.7 ± 16 J/K/mol
[2]; 355 K, Liquid
  molar heat capacity at constant pressure: 429 ± 17 J/K/mol
[3]; Crystal 1
  Molar enthalpy of transition or fusion: 13.7 ± 0.4 kJ/mol
[3]; Metastable crystal
  Molar enthalpy of transition or fusion: 9.9 ± 0.5 kJ/mol
